Results reported in publication PMC3734177, “Design, Synthesis, Evaluation and Thermodynamics of 1-Substituted Pyridylimidazo[1,5-a]Pyridine Derivatives as Cysteine Protease Inhibitors” (PLoS ONE, 2013).
≈ marks a conversion by molar mass, not a printed value. Where “and” joins values, the source holds several entries; their conditions need not be identical. Equal values may be shown once. Read-outs that look alike come from different tables or passages of the source.

Columns and labels:
papain [1] = biological target: T1, papain (Carica papaya, UniProt P00784); experiment: Cysteine protease inhibitory activity, papain with Bz-DL-Arg-pNA substrate; format: biochemical; conditions: for Type of inhibition: Lineweaver–Burk plot; for IC50: papain
T1 construct: To solutions of active papain (final concentration: 0.05 mM); purchased Sigma Chemical Co., St. Louis, MO, USA
T1 sequence (P00784 134-345): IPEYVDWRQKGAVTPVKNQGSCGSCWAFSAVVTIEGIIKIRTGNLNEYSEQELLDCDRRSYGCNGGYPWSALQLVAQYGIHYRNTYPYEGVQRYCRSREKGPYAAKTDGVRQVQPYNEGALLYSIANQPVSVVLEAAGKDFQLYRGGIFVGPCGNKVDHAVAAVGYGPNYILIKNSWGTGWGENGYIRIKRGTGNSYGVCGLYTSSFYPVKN
Description: The capacity of the 1-pyridylimidazo[1,5-a]pyridine derivatives to inhibit cysteine proteases was tested using papain as the model enzyme. The proteolytic activity of the reaction mixtures was determined using Bz-DL-Arg-pNA as the chromogenic substrate. To solutions of active papain (final concentration: 0.05 mM) were added concentrated solutions of the different derivatives to final concentrations of 0.2 mM. […] The same procedure was used at 32°C and 42°C for thermodynamics studies. The kinetic parameters for the substrate hydrolysis were determined by measuring the initial rate of enzymatic activity. The inhibition constant Ki was determined by Dixon method and also by the Lineweaver–Burk equation. The Km value was calculated from the double-reciprocal equation by fitting the data into the computer software Origin 6.1. The Lineweaver–Burk plot was used to determine the types of inhibition. For the kinetic analysis and rate constant determinations, the assays were carried out in triplicate, and the average value was considered throughout this work.

papain [2] = biological target: T1, papain; experiment: Thermodynamics analysis of papain inhibition (Van't Hoff); format: biochemical; conditions: Value at 37°C
Description: Free energy changes of inhibition of papain against 1- substituted pyridylimidazo[1,5-a] pyridine derivatives (ΔG) were determined by the equation, [drawing 1] (1)
Temperature dependence of the inhibition constants was used to determine the thermodynamic parameters. Changes in enthalpy (ΔH) were determined from the Van’t Hoff plots by using the equation, [drawing 2] (2)
Where ΔH is enthalpy change, R is gas constant, ΔS is entropy change and T is the absolute temperature. The entropy change was obtained from the equation, [drawing 3] (3)

[3] = tested on: Bacillus spp. (ATCC-14593); experiment: MIC, micro dilution method; format: cell-based; conditions: ATCC14593; Bacillus sp.
Description: (§1) The disk diffusion method was used for the preliminary antibacterial evaluation of 1-pyridylimidazo[1,5-a]pyridine derivatives. The MIC50 of these derivatives, showing inhibition in the preliminary tests, were further determined by the microtitre plate technique using micro dilution method. In brief, the bacterial strains (S. aureus, P. vulgaris, Group D Streptococci, Bacillus sp., E. coli, P. aeruginosa and S. morganii)) were grown and diluted to 2×10^5 colony-forming units (CFU)/ml in sodium phosphate buffer (SPB) containing 0.03% Luria–Bertani (LB) broth. The synthesized derivatives were dissolved in DMSO and their serial dilution was performed in 50 µL of LB medium in 96-well microtitre plate to achieve the required concentrations (0.1–10 µg/ml) with bacterial inoculums (5×10^4 CFU per well). DMSO was taken as negative control and Ceftriaxone and clotrimazole were taken as positive control. After incubation at 37°C overnight, the MICs were taken as the lowest inhibitor concentration at which the bacterial growth was inhibited. The average of three values was calculated and that was the MIC for the test material and bacterial strain. […]

[4] = tested on: Escherichia coli (ATCC-25922); experiment: MIC, micro dilution method; format: cell-based; conditions: ATCC25922, E. coli
Description: as §1

[5] = tested on: Proteus vulgaris (ATCC-29905); experiment: MIC, micro dilution method; format: cell-based; conditions: ATCC29905, P. vulgaris
Description: as §1

[6] = tested on: Pseudomonas aeruginosa (ATCC-27853); experiment: MIC, micro dilution method; format: cell-based; conditions: ATCC27853
Description: as §1

[7] = tested on: Staphylococcus aureus (ATCC-25923); experiment: MIC, micro dilution method; format: cell-based; conditions: ATCC25923, S. aureus
Description: as §1

[8] = tested on: Bacillus spp. (ATCC-14593); experiment: MBC, sub cultivation from MIC plate; format: cell-based; conditions: ATCC14593, Bacillus sp.
Description: (§2) After having determined the MICs, bacterial strains from the wells of the microtitre plate with no visible bacterial growth were removed for serial sub cultivation of 2 µl into another new microtitre plate containing 100 µl of broth per well and further incubated for 24 h. The lowest concentration with no visible growth was defined as MBC [28], indicating 99.5% killing of the original inoculum. The absorbance of each well was measured at a wavelength of 620 nm by Microplate Manager 4.0 (Bio-Rad laboratories) and compared with a blank. Solvent (DMSO) was used as a negative control. Three replicates were done for each compound and experiment was repeated two times.

[9] = tested on: Escherichia coli (ATCC-25922); experiment: MBC, sub cultivation from MIC plate; format: cell-based; conditions: ATCC25922, E. coli
Description: as §2

[10] = tested on: Proteus vulgaris (ATCC-29905); experiment: MBC, sub cultivation from MIC plate; format: cell-based; conditions: ATCC29905, P. vulgaris
Description: as §2

[11] = tested on: Pseudomonas aeruginosa (ATCC-27853); experiment: MBC, sub cultivation from MIC plate; format: cell-based
Description: as §2

[12] = tested on: Staphylococcus aureus (ATCC-25923); experiment: MBC, sub cultivation from MIC plate; format: cell-based; conditions: ATCC25923, S. aureus
Description: as §2

[13] = tested on: Bacillus spp. (ATCC-14593); experiment: MIC, micro dilution method; format: cell-based; conditions: ATCC14593; Bacillus sp.; remark: listed apart in the source
[14] = tested on: Group D Streptococci (ATCC-12959); experiment: MIC, micro dilution method; format: cell-based
Description: (§3) The disk diffusion method was used for the preliminary antibacterial evaluation of 1-pyridylimidazo[1,5-a]pyridine derivatives. The MIC50 of these derivatives, showing inhibition in the preliminary tests, were further determined by the microtitre plate technique using micro dilution method. In brief, the bacterial strains (S. aureus, P. vulgaris, Group D Streptococci, Bacillus sp., E. coli, P. aeruginosa and S. morganii)) were grown and diluted to 2×10^5 colony-forming units (CFU)/ml in sodium phosphate buffer (SPB) containing 0.03% Luria–Bertani (LB) broth. The synthesized derivatives were dissolved in DMSO and their serial dilution was performed in 50 µL of LB medium in 96-well microtitre plate to achieve the required concentrations (0.1–10 µg/ml) with bacterial inoculums (5×10^4 CFU per well). DMSO was taken as negative control and Ceftriaxone and clotrimazole were taken as positive control. After incubation at 37°C overnight, the MICs were taken as the lowest inhibitor concentration at which the bacterial growth was inhibited. The average of three values was calculated and that was the MIC for the test material and bacterial strain.
(§4) For the agar plate count method, 25 µL aliquots of bacteria at 1×10^5 CFU/ml in SPB containing 0.03% LB broth were incubated with 25 µL of diluted compounds for 2 h at 37°C. The mixtures of bacteria and compounds were serially diluted 10-fold with SPB and plated on LB plates that were incubated at 37°C overnight. Bacterial colonies were enumerated the following day.

[15] = tested on: Serratia morganii (ATCC- 31665); experiment: MIC, micro dilution method; format: cell-based; conditions: ATCC31665
Description: as §3, §4

[16] = tested on: Group D Streptococci (ATCC-12959); experiment: MBC, sub cultivation from MIC plate; format: cell-based
Description: as §2

[17] = tested on: Serratia morganii (ATCC- 31665); experiment: MBC, sub cultivation from MIC plate; format: cell-based
Description: as §2

| Compound | Ki (papain [1]; 32°C) [µM] | Ki (papain [1]; 37°C) [µM] | Ki (papain [1]; 42°C) [µM] | Type of inhibition (papain [1]) | IC50 (papain [1]) [µM] | ΔG (free energy of binding) (papain [2]) | ΔS (entropy change) (papain [2]) | MIC50 [3] [mg/L] | MIC50 [4] [mg/L] | MIC90 [4] [mg/L] | MIC50 [5] [mg/L] | MIC90 [5] [mg/L] | MIC50 [6] [mg/L] | MIC90 [6] [mg/L] | MIC50 [7] [mg/L] | MIC90 [7] [mg/L] | MBC ([8]; read-out: MBC50) [mg/L] | MBC ([8]; read-out: MBC90) [mg/L] | MBC ([9]; read-out: MBC50) [mg/L] | MBC ([9]; read-out: MBC90) [mg/L] | other results |
| --- | --- | --- | --- | --- | --- | --- | --- | --- | --- | --- | --- | --- | --- | --- | --- | --- | --- | --- | --- | --- | --- |
| COc1ccc(-c2nc(-c3ccccn3)c3ccccn23)cc1 [Compound 3b, 1-(2-pyridyl)-3-(4-methoxyphenyl) imidazo[1,5-a]pyridine] | 26.2 | 23.2 | 21.1 | Competitive | 21.2 | −6.55 Kcalmol^−1 and −6.55(±0.33) Kcalmol^−1 | 71.4 (±2.46) Jmol-K^−1 | 0.9 (≈ 2.99 µM) | 1 (≈ 3.32 µM) | 1.8 (≈ 5.97 µM) | 0.8 (≈ 2.65 µM) | 1.5 (≈ 4.98 µM) | 1 (≈ 3.32 µM) | 1.8 (≈ 5.97 µM) | 1 (≈ 3.32 µM) | 1.9 (≈ 6.3 µM) | 1.7 (≈ 5.64 µM) | 3.2 (≈ 10.6 µM) | 1.9 (≈ 6.3 µM) | 2.9 (≈ 9.62 µM) | ΔH (enthalpy change) (papain [2]; Van't Hoff plot): −5.3(±0.80) KJmol^−1; MBC ([10]; read-out: MBC50): 1.6 mg/L (≈ 5.31 µM); MBC ([10]; read-out: MBC90): 3.2 mg/L (≈ 10.6 µM); MBC ([11]; ATCC27853, read-out: MBC50): 2.1 mg/L (≈ 6.97 µM); MBC ([11]; ATCC27853, read-out: MBC90): 4 mg/L (≈ 13.3 µM); MBC ([12]; read-out: MBC50): 2.3 mg/L (≈ 7.63 µM); MBC ([12]; read-out: MBC90): 4.5 mg/L (≈ 14.9 µM); MIC90 [13]: 1.7 mg/L (≈ 5.64 µM) |
| Clc1ccccc1-c1nc(-c2ccccn2)c2ccccn12 [Compound 3c, 1-(2-pyridyl)-3-(2-chlorophenyl) imidazo[1,5-a]pyridine] | 94.1 | 90 | 85.6 | Non -Competitive | 94.5 | −5.71 Kcalmol^−1 and −5.71(±0.27) Kcalmol^−1 | 69.88 (±2.65) Jmol-K^−1 | 0.9 (≈ 2.94 µM) | 0.6 (≈ 1.96 µM) | 1.1 (≈ 3.6 µM) | 1 (≈ 3.27 µM) | 1.9 (≈ 6.21 µM) | 1.2 (≈ 3.92 µM) | 2.2 (≈ 7.19 µM) | 1.2 (≈ 3.92 µM) | 2.4 (≈ 7.85 µM) | 1.9 (≈ 6.21 µM) | 3.8 (≈ 12.4 µM) | 1.2 (≈ 3.92 µM) | 2.3 (≈ 7.52 µM) | MIC50 [14]: 0.9 mg/L (≈ 2.94 µM); MIC90 [14]: 1.7 mg/L (≈ 5.56 µM); MIC50 [15]: 1 mg/L (≈ 3.27 µM); MIC90 [15]: 1.9 mg/L (≈ 6.21 µM); MBC ([16]; read-out: MBC50): 1.8 mg/L (≈ 5.89 µM); MBC ([16]; read-out: MBC90): 3.4 mg/L (≈ 11.1 µM); MBC ([10]; read-out: MBC50): 2.2 mg/L (≈ 7.19 µM); MBC ([10]; read-out: MBC90): 4.3 mg/L (≈ 14.1 µM); MBC ([11]; ATCC27853, read-out: MBC50): 2.4 mg/L (≈ 7.85 µM); MBC ([11]; ATCC27853, read-out: MBC90): 4 mg/L (≈ 13.1 µM); MBC ([17]; ATCC31665, read-out: MBC50): 2.1 mg/L (≈ 6.87 µM); MBC ([17]; ATCC31665, read-out: MBC90): 4.1 mg/L (≈ 13.4 µM); MBC ([12]; read-out: MBC50): 2.4 mg/L (≈ 7.85 µM); MBC ([12]; read-out: MBC90): 4.7 mg/L (≈ 15.4 µM); MIC90 [13]: 1.7 mg/L (≈ 5.56 µM) |
